Paper PMC12658643, “Effects of Ligand N and O Donor Content on the Structure, Aqueous Stability, and SOD Activity of a Series of Mn^2+ Complexes with Pyridine-Containing Tripodal Ligands” (ACS Omega, 2025)
Like-named read-outs stand apart in the source and are kept apart here.

B1: Escherichia coli MnSOD: manganese superoxide dismutase enzyme of Escherichia coli (protein, UniProt P00448 2-206, looked up)
Superoxide dismutase [Mn]: SYTLPSLPYAYDALEPHFDKQTMEIHHTKHHQTYVNNANAALESLPEFANLPVEELITKLDQLPADKKTVLRNNAGGHANHSLFWKGLKKGTTLQGDLKAAIERDFGSVDNFKAEFEKAAASRFGSGWAWLVLKGDKLAVVSTANQDSPLMGEAISGASGFPIMGLDVWEHAYYLKFQNRRPDYIKEFWNVVNWDEAAARFAAKK
B2: Human MnSOD: human manganese superoxide dismutase enzyme (protein, UniProt P04179 25-222, looked up)
Superoxide dismutase [Mn], …: KHSLPDLPYDYGALEPHINAQIMQLHHSKHHAAYVNNLNVTEEKYQEALAKGDVTAQIALQPALKFNGGGHINHSIFWTNLSPNGGGEPKGELLEAIKRDFGSFDKFKEKLTAASVGVQGSGWGWLGFNKERGHLQIAACPNQDPLQGTTGLIPLLGIDVWEHAYYLQYKNVRPDYLKAIWNVINWENVTERYMACKK

What was measured:
superoxide ion [1] = test: McCord-Fridovich assay (SOD activity, inhibition of ferricytochrome c reduction by superoxide ion); assay type: biochemical
Source text: The McCord–Fridovich assay was used to measure the SOD activity of the Mn^2+ complexes of our ligands formed in situ. This assay utilizes the reaction of xanthine oxidase with xanthine to produce superoxide ion which, in turn, reduces ferricytochrome C. The reduction of ferricytochrome C is monitored at 550 nm in the absence and presence of SOD mimics to determine the concentration at which the complexes inhibit ferricytochrome C reduction by 50%, their IC50 value. […] Stock solutions of cytochrome C, xanthine, xanthine oxidase, catalase, and MnCl2 were also prepared with this buffer. The temperature of the reactions was held constant at 25 °C using a Peltier attachment to the spectrophotometer. For a typical reaction, a solution was prepared in a cuvette containing 50 μM cytochrome c, 50 μM xanthine, 30 μg/mL catalase, and enough buffer to provide a total of 3 mL of solution. Approximately 100 μg/mL xanthine oxidase was added to initiate the reaction. This quantity was adjusted to give an initial velocity of 0.025–0.030 ΔAbs550nm/min. The reaction was monitored at 550 nm. After 2.5 min, a quantity of MnCl2 was added and the absorbance was monitored for another 2.5 min. Reactions were run in triplicate for each different concentration of Mn^2+ examined, and percent inhibition was calculated as %I=(V0−Vf/V0)×100% , where V 0 and V f are the initial and final velocities respectively. Plots of %I vs [Mn^2+] were used to determine the IC50 for each complex. To verify the fidelity of the McCord-Fridovich assay, the production of urate by the xanthine/xanthine oxidase reaction at 290 nm in the absence and presence of each complex, and no inhibition at a concentration higher than the IC50 was observed.
The SOD-like activity of Mn^2+ complexes of the tripodal ligands was evaluated using the McCord-Fridovich assay. This is an indirect assay that examines the reduction of ferricytochrome c by superoxide ion in the absence and presence of SOD or potential SOD mimetic compounds. The reaction of xanthine with xanthine oxidase provides a source of superoxide ion for the assay, and the reduction of ferricytochrome c is monitored at 550 nm. Given their low to moderate aqueous stability, it was not possible to use preformed complexes for these assays since we would not expect them to remain intact at the micromolar concentrations employed. Instead, Mn^2+ complexes were formed in situ, in buffered, aqueous solution (pH 7.5), by combining the ligands with manganese(II) chloride. In each case, an excess of ligand was included to produce Mn^2+ complexation as close to 100% as possible, while avoiding solubility issues. Percent complexation of the complexes under these conditions has been estimated from the 1:1 [MnL]^2+ stability constants (βMnL) in Table , based on the ligand complex concentration employed and an Mn^2+ concentration close to the IC50 values of the complexes (0.1 μM). We note that, given the high concentrations of ligand present in our experiments, higher speciation complexes (e.g., [MnL2]^2+) may also be present in our reaction solutions, resulting from adventitious mono-or bidentate-coordination of an additional ligand. These types of species have been observed previously for Mn^2+ complexes with a related ligand (HPClNOL), where HPClNOL is the tripodal ligand {1-[bis(pyridine-2-ylmethyl)-amino]-3-chloropropan-2-ol}, yet in a 50:50, MeOH/H2O solution where overall complex stability is expected to be much higher. Since we cannot rule out higher speciation under the conditions of these in situ experiments, our use of the term Mn^2+ complexes is meant to indicate all [MnL]^2+ or [MnL x ]^2+ species present in reaction solutions here.
Percent inhibition plots for MnCl2 in both HEPES and phosphate buffer are provided in Supporting Information (Figures S35 and S36). […]

[2] = Cyclic voltammetry of Mn^2+ complexes formed in situ, Mn^III/Mn^II couple; assay type: physicochemical
Procedure: Cyclic voltammograms were recorded in 50 mM collidine buffer, pH 7.5, using an eDAQ 466 Integrated Potentiostat System with EChem software. Mn^2+ complexes were formed in situ in the presence of excess ligand to ensure a high percentage of complex formation (see Table S35 in Supporting Information) according to our stability studies vide infra. A glassy carbon working electrode, Ag/AgCl reference electrode, and Pt/Ti auxiliary electrode were employed. Prior to recording CVs, solutions were bubbled with nitrogen gas for 15 min to eliminate oxygen. CVs were then recorded at a scan rate of 100 mV/s.
Cyclic voltammograms of the Mn^2+ complexes of TMPA, DPEA, DPMEA, PDEA, and PDMEA, prepared in situ in buffered aqueous solution (pH 7.5), were recorded vs Ag/AgCl to determine the reduction potential (E 1/2) for the Mn^III/Mn^II couple. A cyclic voltammogram of MnCl2 in the buffered solution was also recorded for the purpose of comparison. Collidine buffer was employed for analysis since it tends to permit visualization of electrochemical waves for Mn^2+ complexes with pyridine-containing ligands, where other solvents/buffers can lead to ill-defined or absent features for these species. Ligand and MnCl2 concentrations were chosen to ensure near complete (N4 and N3O), or substantial (N2O2) complex formation according to our stability studies. For [MnTMPA]^2+, an equimolar amount of TMPA and MnCl2 were used (0.001 M), and for all other complexes, ligand concentration (0.01 M) was 10-fold the concentration of MnCl2 (0.001 M). In each case, […] waves were recorded where the difference in oxidation and reduction peak positions (ΔE p) is greater than 59 mV. Redox potential values (E 1/2), determined from the average of the positions of the oxidation and reduction peaks, are given in Table along with ΔE p values. The distinct positions of these peaks, relative to those of MnCl2, further corroborate [MnL]^2+ aqueous complex formation of the N4, N3O, and N2O2 ligands employed. Voltammograms can be found in Supporting Information (Figures S29–S34 ).

[3] = for pK aMnL(H2O) (acid dissociation constant of an associated aqua ligand) / Log Ka MnL(H2O) / Log βMnL (stability constant of the Mn^2+ complex) / Log bMnL: I = 0.10 M KCl; for pK aMnL(H2O) (acid dissociation constant of an associated aqua ligand) / Log βMnL (stability constant of the Mn^2+ complex): t = 25 °C; for conditional complex formation: McCord-Fridovich assay conditions, HEPES buffer pH 7.5, excess ligand, Mn^2+ 0.1 μM, estimated from βMnL; for Log Ka MnL(H2O) / Log bMnL: Table S35, t = 25°C; for % Complex (McCord-Fridovich assays): Table S37, ligand 0.001 M (TMPA, DPEA, DPMEA) or 0.01 M (PDEA, PDMEA), MnCl2 0.1 µM, estimated from stability studies; for % Complex (complex formation under cyclic voltammetry conditions): ligand 0.001 M (TMPA) or 0.01 M, MnCl2 0.001 M, estimated from complex stability studies
[4] = Potentiometric titration of the acidified ligands (protonation constants); details: I = 0.10 M KCl; for Log βLH1 (protonation constant of the ligand) / Log βLH2 (protonation constant of the ligand): t = 25 °C; for Log Ka1 / Log Ka2: Table S35, t = 25°C
superoxide ion [5] = details: reported previously; reference not given; read-out: IC50 (SOD activity); cited from earlier work
[6] = given for comparison to the complexes; reference not given; cited from earlier work
[7] = HEPES buffer, pH 7.5, estimated using kcat=kcytc[cytc]/IC50, k cytc = 2.6 × 10^5 M^–1 s^–1, [cyt c] = 5 × 10^–5 M
[8] = Mn^2+ complexes formed in situ with excess ligand, 50 mM HEPES buffer, pH 7.5, 25 °C, concentration as Mn^2+, read-out: measured IC50
[9] = collidine buffer, pH 7.5, scan rate 100 mV/s, vs Ag/AgCl
[10] = HEPES buffer, pH 7.5, measured IC50 corrected for expected percent complex formation, read-out: apparent IC50

Row | Molecule | IC50 (superoxide ion [1]; [8]) | IC50 (superoxide ion [1]; [10]) | pK aMnL(H2O) (acid dissociation constant of an associated aqua ligand) [3] | conditional complex formation [3] | Log Ka MnL(H2O) [3] | % Complex (McCord-Fridovich assays) [3] | % Complex (complex formation under cyclic voltammetry conditions) [3] | Log βLH1 (protonation constant of the ligand) [4] | Log Ka1 [4] | Log βMnL (stability constant of the Mn^2+ complex) [3] | Log bMnL [3] | Log βLH2 (protonation constant of the ligand) [4] | Log Ka2 [4] | also measured
1 | [Cl][Mn][Cl] [MnCl2, manganese(II) chloride, reference compound] | 13000 nM |  |  |  |  |  |  |  |  |  |  |  |  | k cat (superoxide ion [1]; 50 mM phosphate buffer, pH 7.5, estimated from IC50): 2.8 × 10^7 M^–1 s^–1; IC50 (superoxide ion [1]; 50 mM phosphate buffer, pH 7.5, read-out: measured IC50): 470 nM; SOD activity in the range of the IC50 values of the complexes (superoxide ion [1]; HEPES buffer): do not observe measurable SOD activity; k cat (superoxide ion [1]; [7]): 1.0 × 10^6 M^–1 s^–1; ΔE p ([2]; collidine buffer, pH 7.5, scan rate 100 mV/s): 0.285; E oxid [2, 9]: 0.415 V; E red [2, 9]: 0.130 V; E 1/2 vs Ag/AgCl ([2]; collidine buffer, pH 7.5, average of oxidation and reduction peak positions): 0.273 V; E 1/2 vs SHE ([2]; converted using E 1/2 SHE = E 1/2 Ag/AgCl + 0.197 V): 0.470 V
2 | OCCN(CCO)Cc1ccccn1 [PDEA, 2,2′-((Pyridin-2-ylmethyl)azanediyl)bis(ethan-1-ol)] | 110 nM | 70 nM | 7.00(2) | 66% | -7.00(2) | 66% | 66% | 6.78(1) | 6.78(1) |  |  |  |  | 
3 | COCCN(CCOC)Cc1ccccn1 [PDMEA, 2-Methoxy-N-(2-methoxyethyl)-N-(pyridin-2-ylmethyl)ethan-1-amine] | 1300 nM | 790 nM | 6.6(1) | 61% | -6.6(1) | 61% | 61% | 6.90(2) | 6.90(2) | 2.32(2) | 2.32(2) |  |  | k cat (superoxide ion [1]; [7]): 1.6 × 10^7 M^–1 s^–1
4 | OC(CCl)CN(Cc1ccccn1)Cc1ccccn1.[Cl][Mn][Cl] (stereo not shown) [Mn(HPClNOL)Cl2] |  |  |  |  |  |  |  |  |  |  |  |  |  | IC50 (superoxide ion [5]): 350 nM
5 | c1ccc(CN(Cc2ccccn2)Cc2ccccn2)nc1 [TMPA, Tris(pyridin-2-ylmethyl)amine] | 300 nM | 300 nM | 4.98(3) | 99% | -4.98(3) | 99% | 93% | 6.01(1) | 6.01(1) | 5.24(2) | 5.24(2) | 10.08(1) | 10.08(1) | 
6 | OCCN(Cc1ccccn1)Cc1ccccn1 [DPEA, N,N-Bis(2-pyridylmethyl)ethanolamine] | 150 nM | 140 nM | 5.63(1) | 92% | -5.63(1) | 92% | 98% | 6.10(1) | 6.10(1) | 4.12(1) | 4.12(1) | 9.40(3) | 9.40(3) | 
7 | COCCN(Cc1ccccn1)Cc1ccccn1 [DPMEA, 2-Methoxy-N,N-bis(pyridin-2-ylmethyl)ethan-1-amine] | 600 nM | 480 nM | 6.07(2) | 80% | -6.07(2) | 80% | 97% | 6.19(1) | 6.19(1) | 3.71(2) | 3.71(2) | 9.81(1) | 9.81(1) | 
8 | B1 |  |  |  |  |  |  |  |  |  |  |  |  |  | E 1/2 vs SHE of MnSOD enzymes [6]: 0.40 V
9 | B2 |  |  |  |  |  |  |  |  |  |  |  |  |  | E 1/2 vs SHE of MnSOD enzymes [6]: 0.29 V
